Data reported in US11135234B2, “Effective aminoglycoside antibiotic for multidrug-resistant bacteria” (MICROBIAL CHEMISTRY RESEARCH FOUNDATION, priority 2015, dated 2021).
In brackets after ≈: the same amount, converted by molar mass.

Assays:
P. aeruginosa PAO1 = assay: MIC, agar plate dilution method, P. aeruginosa PAO1; type: cell-based, Pseudomonas aeruginosa; conditions: for minimal inhibitory concentration (MIC): P. aeruginosa PAO1, Sensitive bacterium
Method in brief: (§1)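 Japan Society of Chemotherapy agar dilution protocol used. MIC reported in μg/mL.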

S. marcescens TH-0447 = assay: MIC, agar plate dilution method, S. marcescens TH-0447; type: cell-based, Serratia marcescens; conditions: for minimal inhibitory concentration (MIC): S. marcescens TH-0447, AMK-resistant
Method in brief: as §1

S. aureus RN4220 = assay: MIC, agar plate dilution method, S. aureus RN4220; type: cell-based, Staphylococcus aureus; conditions: for minimal inhibitory concentration (MIC): S. aureus RN4220, Sensitive bacterium
Method in brief: as §1

E. faecium ATCC19434 = assay: MIC, agar plate dilution method, E. faecium ATCC19434; type: cell-based, Enterococcus faecium; conditions: for minimal inhibitory concentration (MIC): E. faecium ATCC19434
Method in brief: as §1

[1] = tested on: A. baumannii ATCC BAA-1710; assay: MIC, agar plate dilution method, A. baumannii ATCC BAA-1710; type: cell-based, Acinetobacter baumannii; conditions: for minimal inhibitory concentration (MIC): A. baumannii ATCC BAA-1710, MDRA
Method in brief: as §1

S. aureus MF490 = assay: MIC, agar plate dilution method, S. aureus MF490; type: cell-based, Staphylococcus aureus; conditions: for minimal inhibitory concentration (MIC): S. aureus MF490, MRSA
Method in brief: as §1

S. aureus RN4220/pMS520 = assay: MIC, agar plate dilution method, S. aureus RN4220/pMS520; type: cell-based, Staphylococcus aureus; conditions: for minimal inhibitory concentration (MIC): S. aureus RN4220/pMS520, MRSA
Method in brief: as §1

P. aeruginosa MSC01035 = assay: MIC, agar plate dilution method, P. aeruginosa MSC01035; type: cell-based, Pseudomonas aeruginosa; conditions: P. aeruginosa MSC01035, ABK-resistant
Method in brief: as §1

P. aeruginosa PAO1/GN315 = assay: MIC, agar plate dilution method, P. aeruginosa PAO1/GN315; type: cell-based, Pseudomonas aeruginosa; conditions: for minimal inhibitory concentration (MIC): P. aeruginosa PAO1/GN315, AMK-resistant
Method in brief: as §1

[2] = tested on: K. pneumoniae ATCC BAA-1705; assay: MIC, agar plate dilution method, K. pneumoniae ATCC BAA-1705; type: cell-based, Klebsiella pneumoniae; conditions: for minimal inhibitory concentration (MIC): K. pneumoniae ATCC BAA-1705, KPC-producing strain
Method in brief: as §1

P. aeruginosa MSC17707 = assay: MIC, agar plate dilution method, P. aeruginosa MSC17707; type: cell-based, Pseudomonas aeruginosa; conditions: for minimal inhibitory concentration (MIC): P. aeruginosa MSC17707, AMK-resistant
Method in brief: as §1

E. coli JM109/pMW218 = assay: MIC, agar plate dilution method, E. coli JM109/pMW218; type: cell-based, Escherichia coli; conditions: for minimal inhibitory concentration (MIC): E. coli JM109/pMW218, Sensitive bacterium
Method in brief: as §1

S. marcescens GN6944 = assay: MIC, agar plate dilution method, S. marcescens GN6944; type: cell-based, Serratia marcescens; conditions: S. marcescens GN6944, GM-resistant
Method in brief: as §1

[3] = tested on: K. pneumoniae ATCC BAA-2146; assay: MIC, agar plate dilution method, K. pneumoniae ATCC BAA-2146; type: cell-based, Klebsiella pneumoniae; conditions: for minimal inhibitory concentration (MIC): K. pneumoniae ATCC BAA-2146, NDM-producing strain
Method in brief: as §1

CNC1C(OC2OC(CO)C(NC(=N)N)CC2O)OC2CC(N)C(OC3C(N)CC(N)C(O)C3O)OC2C1O (stereo not drawn) [Compound X4-a, 4″-deamino-3″-deoxy-5-epi-4″-guanidinoapramycin]
minimal inhibitory concentration (MIC) (P. aeruginosa PAO1): 4 µg/mL (≈ 7.07 µM) | minimal inhibitory concentration (MIC) (S. marcescens TH-0447): 4 µg/mL (≈ 7.07 µM) | minimal inhibitory concentration (MIC) (S. aureus RN4220): 1 µg/mL (≈ 1.77 µM) | minimal inhibitory concentration (MIC) (E. faecium ATCC19434): 8 µg/mL (≈ 14.1 µM) | minimal inhibitory concentration (MIC) [1]: 4 µg/mL (≈ 7.07 µM) | minimal inhibitory concentration (MIC) (S. aureus MF490): 4 µg/mL (≈ 7.07 µM) | minimal inhibitory concentration (MIC) (S. aureus RN4220/pMS520): 1 µg/mL (≈ 1.77 µM) | minimal inhibitory concentration (MIC) (P. aeruginosa MSC01035): 8 µg/mL (≈ 14.1 µM) | minimal inhibitory concentration (MIC) (P. aeruginosa PAO1/GN315): 4 µg/mL (≈ 7.07 µM) | minimal inhibitory concentration (MIC) [2]: 1 µg/mL (≈ 1.77 µM) | minimal inhibitory concentration (MIC) (P. aeruginosa MSC17707): 8 µg/mL (≈ 14.1 µM) | minimal inhibitory concentration (MIC) (E. coli JM109/pMW218): 0.5 µg/mL (≈ 0.884 µM) | minimal inhibitory concentration (MIC) (S. marcescens GN6944): 4 µg/mL (≈ 7.07 µM) | minimal inhibitory concentration (MIC) [3]: 1 µg/mL (≈ 1.77 µM)

CNC1C(O[C@H]2OC(CO)[C@@H](NC(=N)N)CC2O)O[C@H]2CC(N)[C@@H](O[C@@H]3C(N)C[C@@H](N)C(O)[C@H]3F)OC2C1O (stereo partly drawn) [Compound X4-b, 4″-deamino-5,3″-dideoxy-5-epi-5-fluoro-4″-guanidinoapramycin]
MIC (P. aeruginosa PAO1; Pseudomonas aeruginosa, PAO1, P. aeruginosa PAO1, Sensitive bacterium, read-out: minimal inhibitory concentration (MIC)): 4 µg/mL (≈ 7.05 µM) | MIC (S. marcescens TH-0447; Serratia marcescens, TH0447, S. marcescens TH-0447, AMK-resistant, read-out: minimal inhibitory concentration (MIC)): 4 µg/mL (≈ 7.05 µM) | MIC (S. aureus RN4220; Staphylococcus aureus, RN4220, S. aureus RN4220, Sensitive bacterium, read-out: minimal inhibitory concentration (MIC)): 1 µg/mL (≈ 1.76 µM) | MIC (E. faecium ATCC19434; Enterococcus faecium, ATCC19434, E. faecium ATCC19434, read-out: minimal inhibitory concentration (MIC)): 8 µg/mL (≈ 14.1 µM) | MIC ([1]; Acinetobacter baumannii, ATCCBAA1710, A. baumannii ATCC BAA-1710, MDRA, read-out: minimal inhibitory concentration (MIC)): 16 µg/mL (≈ 28.2 µM) | MIC (S. aureus MF490; Staphylococcus aureus, MRSA, read-out: minimal inhibitory concentration (MIC)): 4 µg/mL (≈ 7.05 µM) | MIC (S. aureus RN4220/pMS520; Staphylococcus aureus, MRSA, read-out: minimal inhibitory concentration (MIC), S. aureus RN4220/pMS520, MRSA): 1 µg/mL (≈ 1.76 µM) | MIC (P. aeruginosa MSC01035; Pseudomonas aeruginosa, read-out: minimal inhibitory concentration (MIC)): 16 µg/mL (≈ 28.2 µM) | MIC (P. aeruginosa PAO1/GN315; Pseudomonas aeruginosa, read-out: minimal inhibitory concentration (MIC), P. aeruginosa PAO1/GN315, AMK-resistant): 8 µg/mL (≈ 14.1 µM) | MIC ([2]; Klebsiella pneumoniae, ATCCBAA1705, K. pneumoniae ATCC BAA-1705, KPC-producing strain, read-out: minimal inhibitory concentration (MIC)): 1 µg/mL (≈ 1.76 µM) | MIC (P. aeruginosa MSC17707; Pseudomonas aeruginosa, MSC17707, P. aeruginosa MSC17707, AMK-resistant, read-out: minimal inhibitory concentration (MIC)): 8 µg/mL (≈ 14.1 µM) | MIC (E. coli JM109/pMW218; Escherichia coli, JM109/PMW218, E. coli JM109/pMW218, Sensitive bacterium, read-out: minimal inhibitory concentration (MIC)): 1 µg/mL (≈ 1.76 µM) | MIC (S. marcescens GN6944; Serratia marcescens, read-out: minimal inhibitory concentration (MIC)): 4 µg/mL (≈ 7.05 µM) | MIC ([3]; Klebsiella pneumoniae, ATCCBAA2146, K. pneumoniae ATCC BAA-2146, NDM-producing strain, read-out: minimal inhibitory concentration (MIC)): 1 µg/mL (≈ 1.76 µM)

CNC1C(OC2CC(O)C(N)C(CO)O2)OC2CC(N)C(OC3C(N)CC(N)C(O)C3O)OC2C1O (centres unmarked) [Compound Y3, 2″-deoxy-5,3″-diepiapramycin]
minimal inhibitory concentration (MIC) (P. aeruginosa PAO1): 4 µg/mL (≈ 7.64 µM) | minimal inhibitory concentration (MIC) (S. marcescens TH-0447): 8 µg/mL (≈ 15.3 µM) | minimal inhibitory concentration (MIC) (S. aureus RN4220): 2 µg/mL (≈ 3.82 µM) | minimal inhibitory concentration (MIC) (E. faecium ATCC19434): 8 µg/mL (≈ 15.3 µM) | minimal inhibitory concentration (MIC) [1]: 8 µg/mL (≈ 15.3 µM) | minimal inhibitory concentration (MIC) (S. aureus MF490): 4 µg/mL (≈ 7.64 µM) | minimal inhibitory concentration (MIC) (S. aureus RN4220/pMS520): 2 µg/mL (≈ 3.82 µM) | minimal inhibitory concentration (MIC) (P. aeruginosa MSC01035): 16 µg/mL (≈ 30.6 µM) | minimal inhibitory concentration (MIC) (P. aeruginosa PAO1/GN315): 8 µg/mL (≈ 15.3 µM) | minimal inhibitory concentration (MIC) [2]: 2 µg/mL (≈ 3.82 µM) | minimal inhibitory concentration (MIC) (P. aeruginosa MSC17707): 8 µg/mL (≈ 15.3 µM) | minimal inhibitory concentration (MIC) (E. coli JM109/pMW218): 1 µg/mL (≈ 1.91 µM) | minimal inhibitory concentration (MIC) (S. marcescens GN6944): 4 µg/mL (≈ 7.64 µM) | minimal inhibitory concentration (MIC) [3]: 2 µg/mL (≈ 3.82 µM)

gentamicin [GM, reference compound]
minimal inhibitory concentration (MIC) (P. aeruginosa PAO1): 2 µg/mL | minimal inhibitory concentration (MIC) (S. marcescens TH-0447): 32 µg/mL | minimal inhibitory concentration (MIC) (S. aureus RN4220): 0.5 µg/mL | minimal inhibitory concentration (MIC) (E. faecium ATCC19434): 8 µg/mL | minimal inhibitory concentration (MIC) [1]: >64 µg/mL | minimal inhibitory concentration (MIC) (S. aureus MF490): >64 µg/mL | minimal inhibitory concentration (MIC) (S. aureus RN4220/pMS520): 0.5 µg/mL | minimal inhibitory concentration (MIC) (P. aeruginosa MSC01035): >64 µg/mL | minimal inhibitory concentration (MIC) (P. aeruginosa PAO1/GN315): 8 µg/mL | minimal inhibitory concentration (MIC) [2]: 2 µg/mL | minimal inhibitory concentration (MIC) (P. aeruginosa MSC17707): 8 µg/mL | minimal inhibitory concentration (MIC) (E. coli JM109/pMW218): 0.25 µg/mL | minimal inhibitory concentration (MIC) (S. marcescens GN6944): 64 µg/mL | minimal inhibitory concentration (MIC) [3]: >64 µg/mL
